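Protocol summary: plate cells (96-well), add compound at 5 concentrations, incubate 48 h, interpolate endpoints linearly. Abbreviation: GI50, concentration required for 50% inhibition of growth. At the TGI there is no net growth.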

Common to all, as to test: inhibition of tumour cell growth, NCI panel, 48 h
For experiment [1], the system named is CAKI-1 renal.
The test system of experiment [2] is PC-3 prostate.
Experiment [3] deals with HCT-15 colon.
Experiment [4] concerns HCC-2998 colon.
Experiment [5] concerns IGROV1 ovarian.
In experiment [6] the test system is MALME-3M melanoma.
Experiment [7] concerns MOLT-4 leukemia.
The test system of experiment [8] is NCI-H522 lung.
Experiment [9] relates to MDA-MB-435.
The test system of experiment [10] is SW-620 colon.

As to `COc1ccc(N(C)c2nc(C)nc3ccccc23)cc1`, the GI50 in experiment [1], in experiment [2], in experiment [3], in [4], in [5] and in experiment [7] was less than 0.01 µM each time. In addition, the GI50 in experiment [8], in experiment [9] and in [10] was less than 0.01 µM throughout. Further, the TGI was 46.4 µM in [1]; 36.8 µM in experiment [2]; more than 100 µM in experiment [3]; 4.31 µM in experiment [4]; more than 100 µM in experiment [5]; 39.5 µM in experiment [6]. Further, the TGI in [7] was more than 100 µM; in experiment [8], less than 0.01 µM; in [9], less than 0.01 µM; in [10], more than 100 µM.
With `Nc1cccc2c1C(=O)N(C1CCC(=O)NC1=O)C2=O` (centres undefined), the GI50 in [1], in experiment [2], in experiment [3], in [4], in [5] and in experiment [6] was more than 100 µM throughout. For the same molecule, the GI50 in experiment [7], in [8], in experiment [9] and in experiment [10] was more than 100 µM throughout. For the same molecule, the TGI in [1], in experiment [2], in [3], in experiment [4], in experiment [5] and in experiment [6] was more than 100 µM throughout. The TGI in experiment [7], in experiment [8], in experiment [9] and in experiment [10] was more than 100 µM in each case.
`Cc1cc2c(C)c3cc(C)c(N)cc3nc2cc1N`: the GI50 in [1] was 2.03 µM; in experiment [2], 1.11 µM; in [3], 1.43 µM; in experiment [4] it was 1.12 µM; in experiment [5], 1.06 µM; in [6] it was 1.72 µM. Further, the GI50 is 0.43 µM in [7], 0.527 µM in experiment [8], 1.06 µM in experiment [9] and 0.38 µM in experiment [10]. Besides, the TGI in experiment [1] was determined as 8.66 µM; in [2] it was 7.06 µM; in experiment [3], 10.6 µM; in [4], 4.91 µM; in experiment [5] it was 10.8 µM; in experiment [6], 6.31 µM. Moreover, the TGI in experiment [7] amounted to 6.23 µM; in experiment [8], 2.02 µM; in experiment [9], 5.93 µM; in experiment [10], 3.57 µM.
Turning to `OB([O][Hg][c]1ccccc1)[O][Hg][c]1ccccc1`, the GI50 is 0.639 µM in [1]; 0.758 µM in [2]; 0.141 µM in experiment [3]; 1.86 µM in [4]; 0.0949 µM in experiment [5]; 0.244 µM in experiment [6]. For the same molecule, the GI50 is 0.177 µM in experiment [7], 0.0279 µM in experiment [8], 0.475 µM in [9] and 0.191 µM in [10]. The TGI was determined as 2.01 µM in [1]; 2.42 µM in experiment [2]; 0.354 µM in [3]; 3.36 µM in [4]; 0.401 µM in [5]; 0.788 µM in experiment [6]. Also, the TGI in experiment [7] was 0.643 µM; in experiment [8] it was 0.0752 µM; in experiment [9] it was 1.63 µM; in experiment [10], 0.5 µM.
As for `C[C@@H](c1ccc2nccn2c1)n1nnc2ncc(-c3cnn(C)c3)nc21`, the GI50 in [1], in experiment [2], in [3], in experiment [4], in [5] and in [6] was more than 100 µM each time. For the same molecule, the GI50 in experiment [7], in experiment [8], in experiment [9] and in experiment [10] was more than 100 µM throughout. Further, the TGI in experiment [1], in experiment [2], in experiment [3], in experiment [4], in experiment [5] and in experiment [6] was more than 100 µM throughout. Further, the TGI in [7], in experiment [8], in experiment [9] and in [10] was more than 100 µM in each case.
For `Nc1nc(N)[n+]([O-])c(N)c1NCO`, the TGI in experiment [1], in experiment [2], in experiment [3], in experiment [4], in [5] and in experiment [6] was more than 100 µM throughout. In addition, the TGI in experiment [7], in [8], in experiment [9] and in [10] was more than 100 µM throughout.

The record behind these values is PubChem BioAssay (NCI).
